Laboratory results from patent US4882328A, “Thiazetidine derivatives” (Nippon Shinyaku Co. Ltd., priority 1987, dated 1989).
In brackets after ≈: the same amount, converted by molar mass. Structures can show the parent of a compound that is named as a salt.

What was measured:
E. coli = assay: Measurement of Minimal Growth Inhibitory Concentration (MIC), agar plate dilution, E. coli; assay type: cell-based; conditions: Escherichia coli, 10^6 CFU/ml, 37° C., 18 hours, read-out: MIC (2)
Method: (§1) 1. Measurement of Minimal Growth Inhibitory Concentration (MIC)
(§2) MIC was measured by agar plate dilution assay method in accordance with the standard by Japan Chemical Therapeutics Association (refer to Journal of Japan Chemical Therapeutics Association, 29 (1), 76 to 79 (1981).
(§3) Briefly, a bacteria suspension as incubated in a bouillon medium for measurement of sensitivity, at 37° C. for 18 hours was diluted to 10^6 CFU/ml with the same medium. This was inoculated on an agar medium for measurement of sensitivity, which contained a compound to be tested, with a microplanter and incubated at 37° C. for 18 hours and then the MIC was measured. Enoxacin was used as a control.

E. coli KC-14 = assay: Remedial Effect against Mouse Infectious Diseases, E. coli KC-14; assay type: in vivo, ddy male mice infected with E. coli KC-14; design: key: -: ineffective; +: somewhat poorer than enoxacin; ++: comparable to enoxacin; +++: extremely effective; conditions: E. coli KC-14, 5.1×10^4 CFU/mouse; single oral dose 2 h after inoculation; survival after one week, compared with enoxacin
Method: (§4) 2. Remedial Effect against Mouse Infectious Diseases:
(§5) E. coli KC-14 and P. aeruginosa E-2 each were suspended in 4% mucin, and 0.25 ml of each of the resulting suspensions was inoculated into the abdominal cavity of ddy male mice (weight: about 20 g, 4-week age, 10 mice for one group). The amount of the bacteria inoculated was 5.1×10^4 CFU/mouse for E. coli KC-14 and 7.5×10^4 CFU/mouse for P. aeruginosa E-2. Two hours after the inoculation of the bacteria, the compound to be tested was orally administered once, and the number of the animals living after one week was counted. The results obtained were compared with those using the control enoxacin.

P. aeruginosa E-2 [1] = assay: Remedial Effect against Mouse Infectious Diseases, P. aeruginosa E-2; assay type: in vivo, ddy male mice infected with P. aeruginosa E-2; design: key: -: ineffective; +: somewhat poorer than enoxacin; ++: comparable to enoxacin; +++: extremely effective; conditions: P. aeruginosa E-2, 7.5×10^4 CFU/mouse; single oral dose 2 h after inoculation; survival after one week, compared with enoxacin
Method: as §4, §5

P. aeruginosa E-2 [2] = assay: Measurement of Minimal Growth Inhibitory Concentration (MIC), agar plate dilution, P. aeruginosa; assay type: cell-based; conditions: Pseudomonas aeruginosa, E2, 10^6 CFU/ml, 37° C., 18 hours, read-out: MIC (3)
Method: as §1, §2, §3

S. aureus = assay: Measurement of Minimal Growth Inhibitory Concentration (MIC), agar plate dilution, S. aureus; assay type: cell-based; conditions: Staphylococcus aureus, 10^6 CFU/ml, 37° C., 18 hours, read-out: MIC (1)
Method: as §1, §2, §3

## CC1Sc2c(C(=O)O)c(=O)c3cc(F)c(N4CCNCC4)nc3n21 (centres unmarked) [Example 12, 6-Fluoro-1-methyl-4-oxo-7-(1-piperazinyl)-4H[1,3]thiazeto[3,2-a]-1,8-naphthyridine-3-carboxylic Acid Hydrochloride]
E. coli
  MIC: 0.0125 µg/mL
E. coli KC-14
  Remedial Effect (2): +++
P. aeruginosa E-2 [1]
  Remedial Effect (3): +++
P. aeruginosa E-2 [2]
  MIC: 0.1 µg/mL
S. aureus
  MIC: 0.1 µg/mL

## O=C(O)c1c2n(c3nc(N4CCNCC4)c(Cl)cc3c1=O)CS2 [Example 20, 6-Chloro-4-oxo-7-(1-piperazinyl)-4H[1,3]thiazeto[3,2-a]-1,8-naphthyridine-3-carboxylic Acid Hydrochloride]
E. coli
  MIC: 0.05 µg/mL
E. coli KC-14
  Remedial Effect (2): +
P. aeruginosa E-2 [1]
  Remedial Effect (3): -
P. aeruginosa E-2 [2]
  MIC: 0.78 µg/mL
S. aureus
  MIC: 0.78 µg/mL

## CC1Sc2c(C(=O)O)c(=O)c3cc(F)c(N4CCOCC4)nc3n21 (centres unmarked) [Example 18, 6-Fluoro-1-methyl-7-morpholino-4-oxo-4H[1,3]thiazeto[3,2-a]-1,8-naphthyridine-3-carboxylic Acid]
E. coli
  MIC: 0.05 µg/mL (≈ 0.142 µM)
E. coli KC-14
  Remedial Effect (2): +
P. aeruginosa E-2 [1]
  Remedial Effect (3): -
P. aeruginosa E-2 [2]
  MIC: 0.78 µg/mL (≈ 2.22 µM)
S. aureus
  MIC: 0.1 µg/mL (≈ 0.285 µM)

## CCn1cc(C(=O)O)c(=O)c2cc(F)c(N3CCNCC3)nc21 [Enoxacin, enoxacin, reference compound]
E. coli
  MIC: 0.2 µg/mL (≈ 0.624 µM)
E. coli KC-14
  Remedial Effect (2): ++
P. aeruginosa E-2 [1]
  Remedial Effect (3): ++
P. aeruginosa E-2 [2]
  MIC: 0.78 µg/mL (≈ 2.44 µM)
S. aureus
  MIC: 0.78 µg/mL (≈ 2.44 µM)

## CC1Sc2c(C(=O)O)c(=O)c3cc(Cl)c(N4CCN(C)CC4)nc3n21 (centres unmarked) [Example 25, 6-Chloro-1-methyl-7-(4-methyl-1-piperazinyl)-4-oxo-4H[1,3]thiazeto[3,2-a]-1,8-naphthyridine-3-carboxylic Acid Ethanesulfonate]
E. coli
  MIC: 0.025 µg/mL
E. coli KC-14
  Remedial Effect (2): +
P. aeruginosa E-2 [1]
  Remedial Effect (3): -
P. aeruginosa E-2 [2]
  MIC: 0.78 µg/mL
S. aureus
  MIC: 0.39 µg/mL

## CC1Sc2c(C(=O)O)c(=O)c3cc(Cl)c(N4CCNCC4)nc3n21 (centres unmarked) [Example 21, 6-Chloro-1-methyl-4-oxo-7-(1-piperazinyl)-4H[1,3]thiazeto[3,2-a]-1,8-naphthyridine-3-carboxylic Acid Hydrochloride]
E. coli
  MIC: 0.025 µg/mL
E. coli KC-14
  Remedial Effect (2): +
P. aeruginosa E-2 [1]
  Remedial Effect (3): +
P. aeruginosa E-2 [2]
  MIC: 0.78 µg/mL
S. aureus
  MIC: 0.39 µg/mL

## CN1CCN(c2nc3c(cc2F)c(=O)c(C(=O)O)c2n3CS2)CC1 [Example 3, 6-Fluoro-7-(4-methyl-1-piperazinyl)-4-oxo-4H[1,3]-thiazeto[3,2-a]-1,8-naphthyridine-3-carboxylic Acid Hydrochloride]
E. coli
  MIC: 0.025 µg/mL
E. coli KC-14
  Remedial Effect (2): +++
P. aeruginosa E-2 [1]
  Remedial Effect (3): +++
P. aeruginosa E-2 [2]
  MIC: 0.39 µg/mL
S. aureus
  MIC: 0.39 µg/mL

## O=C(O)c1c2n(c3nc(N4CCNCC4)c(F)cc3c1=O)C(c1ccccc1)S2 (centres unmarked) [Example 34, 6-Fluoro-1-phenyl-7-piperazinyl-4-oxo-4H[1,3]thiazeto[3,2-a]-1,8-naphthylidine-3-carboxylic acid hydrochloride]
E. coli
  MIC: 0.1 µg/mL
P. aeruginosa E-2 [2]
  MIC: 0.39 µg/mL
S. aureus
  MIC: 0.39 µg/mL

## CC1Sc2c(C(=O)O)c(=O)c3cnc(N4CCN(C)CC4)nc3n21 (centres unmarked) [Example 7, 1-Methyl-7-(4-methyl-1-piperazinyl)-4-oxo-4H[1,3]thiazeto[3',2'-1,2]pyrido[2,3-d]pyrimidine-3-carboxylic Acid]
E. coli
  MIC: 0.1 µg/mL (≈ 0.288 µM)
E. coli KC-14
  Remedial Effect (2): ++
P. aeruginosa E-2 [1]
  Remedial Effect (3): -
P. aeruginosa E-2 [2]
  MIC: 1.56 µg/mL (≈ 4.49 µM)
S. aureus
  MIC: 1.56 µg/mL (≈ 4.49 µM)

## CC1Sc2c(C(=O)O)c(=O)c3cc(F)c(N4CCN(C)CC4)nc3n21 (centres unmarked) [Example 14, 6-Fluoro-1-methyl-7-(4-methyl-1-piperazinyl)-4-oxo-4H[1,3]thiazeto[3,2-a]-1,8-naphthyridine-3-carboxylic Acid]
E. coli
  MIC: 0.0125 µg/mL (≈ 0.0343 µM)
E. coli KC-14
  Remedial Effect (2): +++
P. aeruginosa E-2 [1]
  Remedial Effect (3): +++
P. aeruginosa E-2 [2]
  MIC: 0.2 µg/mL (≈ 0.549 µM)
S. aureus
  MIC: 0.1 µg/mL (≈ 0.274 µM)

## O=C(O)c1c2n(c3nc(N4CCNCC4)c(F)cc3c1=O)CS2 [Example 2, 6-Fluoro-7-(1-piperazinyl)-4-oxo-4H[1,3]-thiazeto[3,2-a]-1,8-naphthyridine-3-carboxylic Acid Hydrochloride]
E. coli
  MIC: 0.05 µg/mL
E. coli KC-14
  Remedial Effect (2): +
P. aeruginosa E-2 [1]
  Remedial Effect (3): +
P. aeruginosa E-2 [2]
  MIC: 0.39 µg/mL
S. aureus
  MIC: 0.39 µg/mL

## O=C(O)c1c2n(c3nc(N4CCNCC4)c(F)cc3c1=O)C(c1ccc(F)cc1)S2 (centres unmarked) [Example 35, 6-fluoro-1-(4-fluorophenyl)-7-piperazinyl-4-oxo-4H(1,3)thiazeto(3,2-a)-1,8-naphthylidine-3-carboxylic acid]
E. coli
  MIC: 0.1 µg/mL (≈ 0.232 µM)
P. aeruginosa E-2 [2]
  MIC: 0.39 µg/mL (≈ 0.906 µM)
S. aureus
  MIC: 0.39 µg/mL (≈ 0.906 µM)
